Assay results: article PMC8949075, “Evaluation of Two Novel Hydantoin Derivatives Using Reconstructed Human Skin Model Episkin^TM: Perspectives for Application as Potential Sunscreen Agents” (Molecules, 2022)
One block for each compound: values may come before it.

How the values were obtained:
[1] = cited from earlier work
[2] = test system: CHO-K1 cells; test: In vitro micronucleus assay; type: cell-based, Chinese hamster
Description: The CHO-K1 cells were seeded in 6-well plates at a density of 1 × 10^6 cells/well and incubated overnight at 37 °C, 5% CO2 atmosphere. […] The test compounds and 4MBC were dissolved in DMSO (solvent, final concentration 0.1%) and ethanol (co-solvent, final concentration 1%). After 24 h of treatment, the medium was removed, and the cells were rinsed with PBS. Then, fresh medium containing cytochalasin B (CytB; Sigma Aldrich, Darmstadt, Germany) (4.5 µg/mL) was added and incubation was continued for the next 24 h.
After the incubation period, the cells were washed with fresh medium, detached by trypsinization, and centrifuged. The supernatant was discarded and 5 mL of 1% ice-cold sodium citrate (Chempur, Piekary Śląskie, Poland) was added to the cell pellet, which was then gently resuspended. After 15 s, 5 mL of freshly prepared fixative solution (methanol/acetic acid, 3:1) and 4 drops of formaldehyde were added. The cell suspension was centrifuged (5 min, 1000 rpm), the supernatant was discarded again, and the pellet was fixed in fixative mixture two more times, without formaldehyde. After the third fixation, part of the supernatant was removed, and around 1 mL of the supernatant was retained to resuspend the cells. The suspension was then dripped onto clean, previously frozen, glass slides to dry. After air-drying, the slides were stained with Giemsa dye (1:20 in phosphate buffer) for 5 min [56, 78, 79].
One thousand binucleated cells per slide with intact nuclei of equal size, similar pattern of cytoplasm staining, intact membrane, and distinguishable from adjacent cells, without apoptotic and necrotic cells were analyzed. Only the micronuclei with the same morphology and color of the main nuclei, with 1/16 to 1/3 of the major nucleus diameter, unrefringent and not overlapping or connected to the main nuclei were counted. Moreover, the presence of dicentric bridges (DB) and nuclear buds (NB) in the binucleated cells was analyzed. The nuclear division index (NDI) was calculated using the following formula: [(1 × MOC) + (2 × BC) + (3 × MUC)]/N, where MOC is the number of mononuclear cells, BC is the number of binuclear cells, MUC represents the number of multinuclear cells, and N is the total number of scored cells. The micronucleus incidence was presented as a number of micronuclei per 1000 examined binuclear cells. The experiment was conducted two times with three repetitions for each condition.

[3] = design: method as in earlier work; conditions: cited from earlier work
[4] = design: method as in PMID 26674115; conditions: cited from earlier work
[5] = Episkin skin permeation test (finite dose, OECD 428); type: in vitro ADME, human; conditions: human; 24 h exposure, 10 mg/cm^2 finite dose, 2% formulation; read-out: recovery in the epidermis (of the applied dose)
Description: (§1) The MM was provided by the manufacturer.
(§2) The receptor fluid composition was based on the pilot experiments.
(§3) The formulations of the test compounds (JH3 and JH10) and commercial UV filters were applied onto the skin surface in the donor compartment in a net dose of 10 mg/cm^2 (finite dose application) using disposable flexible loops. To quantify the dose of the formulation applied on the top of the Episkin^TM model, the loops were weighed, filled with approximately 11 mg of formulation, and then reweighed. The difference in weight was used as the amount of formulation applied. Commercial UV filters such as BP3, 4MBC, and AVO were used as reference standards. The filters were obtained from Sigma-Aldrich, Darmstadt, Germany.
(§4) The plate with tissues was embedded with parafilm and incubated at specific time points at 32 °C. As the passive diffusion of chemicals (and therefore their skin absorption) is affected by temperature, the diffusion chamber and skin were maintained at a constant temperature close to normal skin temperature of 32 ± 1 °C [19, 23, 30, 32]. At fixed time points (0, 1, 2, 3, 4, 5, 6, and 24 h), aliquots of the receptor fluid (0.5 mL) were collected from the receptor compartment and immediately replaced with fresh fluid. After 24 h the entire receptor fluid was collected, and the skin surface was washed thoroughly with cotton buds impregnated in methanol (5 times). The tissues were removed from the inserts and both the donor and receptor compartments were washed separately with methanol. The samples were stored at −20 °C until chemical analysis.
(§5) All samples were spiked with 25 µL of pentoxifylline (PTX, Sigma-Aldrich, Darmstadt, Germany) (final concentration of 20 µM) used as an internal standard prior to extraction. The samples were analyzed using ultra high-pressure liquid chromatography coupled with mass spectrometry (UHPLC/MS; Waters Corporation, Milford, MA, USA). Quantification was based on peak area and calculated from standard calibration curves of the compound adjusted by the internal standard area. The assay was in agreement with the Organization for Economic Co-operation and Development (OECD) guideline 428 [19].

[6] = test system: Episkin^TM reconstructed human epidermis; test: as above; type: in vitro ADME; conditions: 2% formulation; for absorbed amount detected in the RF (of the applied dose): 24 h exposure, 10 mg/cm^2 finite dose; for detection in the receptor fluid over time: sampling 0-6 and 24 h; for detection in the receptor fluid over time / absorption rate (amount in receptor fluid): 10 mg/cm^2; for absorption rate (amount in receptor fluid): after 24 h
Description: as §1, §2, §3, §4, §5

[7] = CHO-K1 cytotoxicity assay (MTT); type: cell-based; conditions: Chinese hamster, CHO-K1 cells, concentrations ranging from 1 to 10 µM
Description: The Chinese hamster ovary CHO-K1 cell line was obtained from the American Type Culture Collection (ATCC CCL-61). The CHO-K1 cell line was cultured in a humidified incubator at 37 °C with 5% CO2, in F-12K Medium (Kaighn’s Modification of Ham’s F-12 Medium) (ATCC) supplemented with 10% fetal bovine serum (FBS; Gibco, Waltham, MA, USA) and antibiotics (1% streptomycin/penicillin salts mixture, Sigma–Aldrich, Darmstadt, Germany).
The cells were seeded at a density of 6 × 10^3 on 96-well plates. […] Test compounds and 4MBC were dissolved in DMSO (solvent, final concentration 0.1%) and ethanol (co-solvent, final concentration 1%). At the end of the incubation period, 10 µL of MTT reagent was added to each well. After 4 h incubation (37 °C, 5% CO2), the medium was discarded, and the formazan produced in the cells appeared as dark crystals in the bottom of the wells. Next, pure DMSO was added to each well. The optical density data of converted dye was measured at 570 nm (A570) on microplate reader. […] The experiment was conducted two times with three repetitions for each condition.

[8] = Episkin phototoxicity test (UVA 50 J/cm^2; MTT viability, Il-1α release); type: cell-based, human; conditions: human; 0.5 mM, UVA 50 J/cm^2; read-out: tissue viability after UVA exposure compared to non-irradiated epidermis
Description: as §1
Compounds JH3 and JH10 (final concentrations of 0.5 and 1 mM) solubilized in ethanol (final concentration of 1% in water) were applied topically on the tissue surface. Chlorpromazine (CPZ, chlorpromazine hydrochloride, C17H19ClN2S·HCl, CAS number: 69-09-0, molecular weight: […], purity: meets USP testing specifications, Sigma-Aldrich, Darmstadt, Germany) (final concentration of 0.5 mM, based on literature data) was used as a positive control, whereas solvent alone served as a negative control.
Duplicate plates were prepared for UVA and dark (controls) exposure purposes. After the treatment period of 2 h, the excess test compound was removed from each well, and the tissues were exposed to UVA at a non-cytotoxic dose of 50 J/cm^2 ([…] at 250 W/m^2) with a solar light simulator equipped with a window glass filter and ID65 filter (Suntest CPS+, Atlas, Linsengericht, Germany). The emitted spectrum contained both UV and visible outputs with a UV cut-on of approx. 320 nm and corresponded to ID65 per ISO 10,977 [74]. The irradiance level between 320 and 400 nm was approximated by the following equation: W/m^2 (320–400 nm) = W/m^2 (300–800 nm) ÷ 11.5. In parallel, the non-irradiated treated tissues were placed in the dark under the same conditions. […] Next, cell viability was assessed using an MTT conversion test and the culture media aliquots were kept frozen (−20 °C) for Il-1α measurement (see 2.3.2. The Episkin^TM skin irritation test method section).

[9] = test system: Episkin^TM reconstructed human epidermis; test: Episkin skin irritation test (MTT viability, Il-1α release; OECD 439); conditions: 26 mg/cm^2 topical, 15 min exposure, 42 h post-incubation
Description: The Episkin^TM model (aged 13 days, large/1.07 cm^2 surface area) was provided by Episkin (Lyon, France). The Episkin^TM kit consists of 12 reconstructed epidermis units made of type I collagen matrix, representing the dermis, surfaced with a film of type IV collagen, upon which is laid a stratified and differentiated epidermis derived from human keratinocytes [17]. Upon receipt of the tissues, the culture inserts were removed from the agarose-nutrient solution and transferred into 12-well plates containing 2 mL of the maintenance medium (MM) per well. The MM was provided by the manufacturer. Tissues were then incubated for 24 h at 37 °C in a humidified atmosphere of 5% CO2 before use in the permeation, irritation, or phototoxicity experiments.
Prior to the irritation experiments, the Episkin^TM inserts were washed with sterile PBS to remove traces of the MM and transferred into new 12-well plates containing 2 mL of fresh MM. […] Sodium dodecyl sulphate (SDS; Sigma-Aldrich, Darmstadt, Germany) (5% in water) and PBS were used as positive and negative controls, respectively. Both controls were applied topically (26 mg/cm^2). Samples were tested in two independent experiments using three tissues for each chemical, positive, or negative control.
Then, the tissues were placed in new 12-well plates containing 2 mL of the MM per well and incubated for an additional 42 h at 37 °C in a humidified atmosphere of 5% CO2 as post-treatment incubation time. At the end of this period, the culture media of each tissue were collected and stored at −20 °C for Il-1α measurement.
The cell viability was assessed by a subsequent incubation of the tissues for 3 h with freshly prepared 3-(4,5-dimethylthiazol-2-yl)-2,5-diphenyltetrazolium bromide (MTT; Sigma-Aldrich, Darmstadt, Germany) solution (0.3 mg/mL in assay medium (AM)) in a 12-well plate. Then, a biopsy of the epidermis was done using a puncher (Episkin, Lyon, France), and the precipitated formazan was extracted using 500 µL of acidified isopropanol (Chempur, Piekary Śląskie, Poland) (0.04 N HCl in isopropanol) for 48 h (4 °C). At the end of the extraction period, 200 µL of each sample were transferred to 96-well plates for absorbance measurements at 570 nm (A570) [70, 71, 72, 73]. […] Viability (percent of control) was determined by dividing A570 of experimental wells by A570 of control wells × 100%. The test substance was considered as an irritant when mean tissue viability was equal or less than 50% [16, 17].
Il-1α measurement was conducted by a classic enzyme-linked immunosorbent assay (ELISA) technique (Cayman Chemical, Ann Arbor, MI, USA). Firstly, 100 µL of the samples were added into a 96-well ready to use microtiter plate (precoated with a monoclonal antibody specific for Il-1α (Il-1α capture antibody). Secondly, 100 µL of an acetylcholinesterase:Fab’ Conjugate (AChE:Fab’) was added to each well. The plate was covered with plastic film and incubated overnight at 4 °C. At the end of the incubation period the contents of each well were removed and rinsed five times with wash buffer. Next, 200 µL of Ellman’s reagent (containing the substrate for AChE) was added to each well, the plate was covered with plastic film and developed in the dark using an orbital shaker. The absorbance of the wells was measured at 410 nm. Il-1α concentrations were then calculated using the standard curve.

SMILES: Cc1ccc(C=C2C(=O)C3(C)CCC2C3(C)C)cc1 (stereo not drawn) [4MBC, 3-(4-methylbenzylidene) camphor, reference compound]
bacterial mutation (Ames) assay result [1]: negative | DB (dicentric bridges) ([2]; Chinese hamster, 24 h, 1 µM): 4.6 | MN (micronuclei) ([2]; Chinese hamster, 24 h, 1 µM): 8.3 ± 2.9 | NB (nuclear buds) ([2]; Chinese hamster, 24 h, 1 µM): 3.7 | NDI (nuclear division index) ([2]; Chinese hamster, 24 h, 1 µM): 1.35 | DB (dicentric bridges) ([2]; Chinese hamster, 24 h, 5 µM): 4.5 | MN (micronuclei) ([2]; Chinese hamster, 24 h, 5 µM): 9.0 ± 3.4 | NB (nuclear buds) ([2]; Chinese hamster, 24 h, 5 µM): 3.5 | NDI (nuclear division index) ([2]; Chinese hamster, 24 h, 5 µM): 1.30 | DB (dicentric bridges) ([2]; Chinese hamster, 24 h, 10 µM): 3.4 | MN (micronuclei) ([2]; Chinese hamster, 24 h, 10 µM): 7.3 ± 4.4 | NB (nuclear buds) ([2]; Chinese hamster, 24 h, 10 µM): 4.9 | NDI (nuclear division index) ([2]; Chinese hamster, 24 h, 10 µM): 1.39 | in vitro chromosomal aberration test result [3]: negative | log P [4]: 4.95 | recovery at 24 h, 2 % in formulation [5]: 28% | absorbed amount detected in the RF (of the applied dose) [6]: 3% | detection in the receptor fluid over time [6]: detected only after 24 h exposure | viability at 24 h [7]: > 75%

recovery at 24 h, 2 % in formulation [5]: 16% | absorbed amount detected in the RF (of the applied dose) [6]: about 1% | absorption rate (amount in receptor fluid) [6]: 3 µg/cm^2
SMILES: COc1ccc(C(=O)CC(=O)c2ccc(C(C)(C)C)cc2)cc1 [AVO, avobenzone]
log P [4]: 4.51

recovery at 24 h, 2 % in formulation [5]: 18% | absorbed amount detected in the RF (of the applied dose) [6]: 12% | absorption rate (amount in receptor fluid) [6]: 20 µg/cm^2 | detection in the receptor fluid over time [6]: clearly detectable after the third hour
SMILES: COc1ccc(C(=O)c2ccccc2)c(O)c1 [BP3, benzophenone-3]

SMILES: CN(C)CCCN1c2ccccc2Sc2ccc(Cl)cc21 [CPZ, Chlorpromazine, reference compound]
viability at 2 h, 0.5 mM [8]: ~40%

SMILES: CO[C@@]12[C@H](COC(N)=O)C3=C(C(=O)C(C)=C(N)C3=O)N1C[C@@H]1N[C@@H]12 [MMC, Mitomycin C, reference compound]
increase in the number of MNs vs normal and vehicle control ([2]; 0.5 µg/mL): approximately 10 fold | increase in the number of NBs vs normal and vehicle control ([2]; 0.5 µg/mL): 7 fold | MN (micronuclei) ([2]; 0.5 µg/mL (positive control), count in 1000 binucleated cells per slide): 88.5 ± 6.5

SMILES: CCCCCCCCCCCCOS(=O)(=O)[O-].[Na+] [SDS, Sodium dodecyl sulphate, reference compound]
Il-1α release [9]: 96 pg/mL | mean tissue viability ([9]; vs negative control): approximately 10%
